These results are taken from patent EP3046573B1, “AMYLIN ANALOGUES” (Zealand Pharma A/S, priority 2013, dated 2015).

The structures appear in SMILES notation. Numbered stars: 1 amine (or outer) side, 2 acyl side, 3 side chain; on linkers, the order of the positions; unused ones are H or OH. Bridge positions count the residues as written; N and C are the ends. Square brackets hold non-standard residues; d marks the D form. Peptide text beside a SMILES is read from it. * marks the point of attachment. C20 diacid = O=C(O)CCCCCCCCCCCCCCCCCCC(=O)*; γGlu = O=C(O)[C@H](CCC(=O)[*:2])N[*:1]; NMeI = CC[C@H](C)[C@H](NC)C(=O)O; Sar = CNCC(=O)O

In series [1] the target is T1, human amylin receptor 3 (hAMYR3) consisting of hCTR2 co-expressed with human Receptor Activity Modifying Protein 3 (hRAMP3) (Homo sapiens, UniProt O60896+P30988).
T1 construct: expressed in transfected cells
T1 sequence (P30988 25-474): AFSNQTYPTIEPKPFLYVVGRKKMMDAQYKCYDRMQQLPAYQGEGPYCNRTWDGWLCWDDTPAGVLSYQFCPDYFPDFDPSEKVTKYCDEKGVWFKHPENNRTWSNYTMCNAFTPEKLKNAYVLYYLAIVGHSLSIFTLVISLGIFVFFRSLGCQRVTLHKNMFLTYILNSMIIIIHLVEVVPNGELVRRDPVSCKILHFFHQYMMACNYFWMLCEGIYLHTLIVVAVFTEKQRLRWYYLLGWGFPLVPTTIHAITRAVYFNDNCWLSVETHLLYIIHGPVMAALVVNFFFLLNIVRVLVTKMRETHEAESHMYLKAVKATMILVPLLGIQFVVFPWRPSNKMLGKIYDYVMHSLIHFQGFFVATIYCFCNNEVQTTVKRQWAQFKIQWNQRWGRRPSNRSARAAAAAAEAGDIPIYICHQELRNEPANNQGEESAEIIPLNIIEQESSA
T1 sequence (O60896 24-148 partner): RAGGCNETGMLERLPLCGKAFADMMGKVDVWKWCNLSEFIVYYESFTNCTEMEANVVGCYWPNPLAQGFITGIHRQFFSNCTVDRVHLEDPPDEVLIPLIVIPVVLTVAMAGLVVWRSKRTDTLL
The experiment in a line: hAMYR3 assay: induction of cAMP (AlphaScreen cAMP Assay kit) in COS7 cells expressing hAMYR3. Format: cell-based. The settings on record: cAMP induction in COS7 cells expressing hAMYR3; average of a minimum of 3 determinations; read-out: hAMY R3 EC50. The method in brief:
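cAMP accumulation read by AlphaScreen in lysates of RAMP-naive COS7 cells stably transfected with hCTR2 plus hRAMP3. Cells exposed to peptide dilutions for 15 min, 37° C, with 100 µM IBMX; 4PL fitting gave EC50 and efficacy relative to pramlintide.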

Series [2] is described as follows: Assessment of physical stability: fibril formation detected with Thioflavin T (ThT), lag-time. Format: physicochemical. The settings on record: 1 mg/ml peptide, 40 µM ThT, FND = Fibrillation not detected; for Fibrillation lag time (hours) pH 4.0 (Ac): 50 mM acetate buffer pH 4.0, 96 hours at 40°C; for Fibrillation lag time (hours) pH 7.0 (Ph): 50 mM phosphate buffer pH 7.0, 96 hours at 40°C. On the procedure:
Solutions containing (i) 1 mg/ml of test peptide, 40 µM ThT and 50 mM phosphate (Ph) buffer (pH 7.0), (ii) 1 mg/ml of test peptide, 40 µM ThT and 50 mM histidine (His) buffer (pH 7.0), and (iii) 1 mg/ml of test peptide, 40 µM ThT and 50 mM acetate (Ac) buffer (pH 4.0), were loaded in a 96-well black fluorescence plate (clear bottom) in triplicate. Data were collected at fixed intervals of 10 min, each preceded by 300 s of automixing (agitation), over a period of 96 hours at 40° C. Physical stability, expressed as lag-time of fibril formation (in hours), was defined as the intersection between two linear regressions representing the initial stable phase and the growth phase.

Series [3] has as its target T2, human calcitonin receptor (hCTR2) (Homo sapiens, UniProt P30988).
T2 construct: expressed in transfected cells
T2 sequence (P30988 25-474): T1 sequence (P30988 25-474)
The experiment in a line: hCTR2 assay: induction of cAMP (AlphaScreen cAMP Assay kit) in COS7 cells expressing hCTR2. Format: cell-based. The method in brief:
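Cells were seeded one day ahead, washed, then exposed to rising peptide concentrations for 15 min at 37° C in the presence of 100 µM IBMX. After lysis for 10 min at room temperature, cAMP was quantified by AlphaScreen and EC50 values derived by 4PL fitting.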

The nature of series [4]: Solubility assessment (turbidity absorbance at 325 nm). Format: physicochemical. Conditions: stock 2 mg/ml diluted 1:1, ambient temperature (typically 25°C), n=1; for Solubility, Acetate buffer pH 4: 100 mM acetate buffer pH 4.0; for Solubility, Acetate buffer pH 5: 100 mM acetate buffer pH 5.0; for Solubility, Histidine buffer pH 6: 100 mM histidine buffer pH 6.0; for Solubility, Histidine buffer pH 7: 100 mM histidine buffer pH 7.0; for Solubility, Phosphate buffer pH 6: 100 mM phosphate buffer pH 6.0; for Solubility, Phosphate buffer pH 7: 100 mM phosphate buffer pH 7.0; for Solubility, Phosphate buffer pH 7.5: 100 mM phosphate buffer pH7.5. The method in brief: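 Turbidimetric screen across pH 4.0–7.5 in 100 mM acetate, histidine and phosphate buffers. A 2 mg/ml peptide stock (pH 2.5) was diluted 1:1 into each, then A325 measured at ambient temperature; values ≤ 0.02 AU denoted solubility of 1 mg/ml or more.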

Broadly, the EC50 is the concentration needed to bring the measured effect to its halfway point. Regarding `CC[C@H](C)[C@@H](C(=O)N[C@@H](CC(C)C)C(=O)N[C@@H](CO)C(=O)N[C@@H](CO)C(=O)N[C@H](C(=O)N[C@@H](CC(N)=O)C(=O)N[C@H](C(=O)NCC(=O)N[C@@H](CO)C(=O)N[C@@H](CC(N)=O)C(=O)N[C@H](C(=O)N1CCC[C@H]1C(N)=O)[C@@H](C)O)C(C)C)[C@@H](C)O)N(C)C(=O)CN(C)C(=O)[C@H](Cc1ccccc1)NC(=O)[C@H](CC(N)=O)NC(=O)[C@H](CC(N)=O)NC(=O)[C@H](CO)NC(=O)[C@H](CO)NC(=O)[C@H](Cc1c[nH]cn1)NC(=O)[C@H](Cc1c[nH]cn1)NC(=O)[C@H](CC(C)C)NC(=O)[C@H](Cc1ccccc1)NC(=O)[C@H](CCC(=O)O)NC(=O)[C@H](C)NC(=O)[C@H](CC(C)C)NC(=O)[C@H](CCCNC(=N)N)NC(=O)[C@H](CCC(N)=O)NC(=O)[C@@H](NC(=O)[C@H](C)NC(=O)[C@@H]1CSSC[C@H](NC(=O)[C@H](CCCNC(=N)N)NC(=O)CC[C@H](NC(=O)CCCCCCCCCCCCCCCCCCC(=O)O)C(=O)O)C(=O)N[C@@H](CC(N)=O)C(=O)N[C@@H]([C@@H](C)O)C(=O)N[C@@H](C)C(=O)N[C@@H]([C@@H](C)O)C(=O)N1)[C@@H](C)O` [Compound 2, [19CD]-isoGlu-RC()NTATC()ATQRLAEFLHHSSNNF-Gly(Me)-Ile(Me)-LSSTNVGSNTP-NH2] ({C20 diacid-γGlu}-RCNTATCATQRLAEFLHHSSNNF[Sar][NMeI]LSSTNVGSNTP-NH2; disulfide 2-7), the EC50 in series [1] came out at 0.26 nM. Besides, in series [2], the “Fibrillation lag time (hours) pH 4.0 (Ac)” value (“Fibrillation lag time … (Ac)” for short) is reported as “FND^&&” and the “Fibrillation lag time (hours) pH 7.0 (Ph)” value (shortened to “Fibrillation lag time … (Ph)”) is “FND^&&”. Further, the concentration giving a half-maximal response (EC50) in series [3] was found to be 0.16 nM. In series [4], the “Solubility, Acetate buffer pH 4” value is “SS (SS indicates solubility ≥ 1mg/ml)”; the “Solubility, Acetate buffer pH 5” value was “SS (SS indicates solubility ≥ 1mg/ml)”; the “Solubility, Histidine buffer pH 6” value was “SS (SS indicates solubility ≥ 1mg/ml)”; the “Solubility, Histidine buffer pH 7” value is “SS (SS indicates solubility ≥ 1mg/ml)”. In series [4], the “Solubility, Phosphate buffer pH 6” value is reported as “SS (SS indicates solubility ≥ 1mg/ml)”; the “Solubility, Phosphate buffer pH 7” value is listed as “SS (SS indicates solubility ≥ 1mg/ml)”; the “Solubility, Phosphate buffer pH 7.5” value was “II (II indicates solubility ≤ 1 mg/ml)”.
As to `CC[C@H](C)[C@@H](C(=O)N[C@@H](CC(C)C)C(=O)N[C@@H](CO)C(=O)N[C@@H](CO)C(=O)N[C@H](C(=O)N[C@@H](CC(N)=O)C(=O)N[C@H](C(=O)NCC(=O)N[C@@H](CO)C(=O)N[C@@H](Cc1c[nH]cn1)C(=O)N[C@H](C(=O)N[C@@H](Cc1ccc(O)cc1)C(N)=O)[C@@H](C)O)C(C)C)[C@@H](C)O)N(C)C(=O)[C@H](C)NC(=O)CN(C)C(=O)[C@H](Cc1ccccc1)NC(=O)[C@H](CC(N)=O)NC(=O)[C@H](CC(N)=O)NC(=O)[C@H](CO)NC(=O)[C@H](CO)NC(=O)[C@H](Cc1c[nH]cn1)NC(=O)[C@H](Cc1c[nH]cn1)NC(=O)[C@H](CC(C)C)NC(=O)[C@H](Cc1ccccc1)NC(=O)[C@H](CCC(=O)O)NC(=O)[C@H](C)NC(=O)[C@H](CC(C)C)NC(=O)[C@H](CCCNC(=N)N)NC(=O)[C@H](CCC(N)=O)NC(=O)[C@@H](NC(=O)[C@H](C)NC(=O)[C@@H]1CSSC[C@H](NC(=O)[C@H](CCCCN)NC(=O)CC[C@H](NC(=O)CCCCCCCCCCCCCCCCCCC(=O)O)C(=O)O)C(=O)N[C@@H](CC(N)=O)C(=O)N[C@@H]([C@@H](C)O)C(=O)N[C@@H](C)C(=O)N[C@@H]([C@@H](C)O)C(=O)N1)[C@@H](C)O` [Compound 3, [19CD]-isoGlu-KC()NTATC()ATQRLAEFLHHSSNNF-Gly(Me)-A-Ile(Me)-LSSTNVGSHTY-NH2] ({C20 diacid-γGlu}-KCNTATCATQRLAEFLHHSSNNF[Sar]A[NMeI]LSSTNVGSHTY-NH2; disulfide 2-7), in series [2], the “Fibrillation lag time … (Ac)” value is listed as “FND” and the “Fibrillation lag time … (Ph)” value was “FND”. Besides, the “Fibrillation lag time (hours) pH 7.0 (His)” value in series [2] (50 mM histidine buffer pH 7.0, 96 hours at 40°C) is on record as “FND”. In addition, the EC50 in series [3] came out at 1.3 nM. In series [4], the “Solubility, Acetate buffer pH 4” value is on record as “SS (SS indicates solubility ≥ 1mg/ml)”; the “Solubility, Acetate buffer pH 5” value was “SS (SS indicates solubility ≥ 1mg/ml)”; the “Solubility, Histidine buffer pH 6” value is given as “SS (SS indicates solubility ≥ 1mg/ml)”; the “Solubility, Histidine buffer pH 7” value is on record as “II** (II indicates solubility ≤ 1 mg/ml)”. Besides, in series [4], the “Solubility, Phosphate buffer pH 6” value is reported as “SS (SS indicates solubility ≥ 1mg/ml)”; the “Solubility, Phosphate buffer pH 7” value was “II (II indicates solubility ≤ 1 mg/ml)”; the “Solubility, Phosphate buffer pH 7.5” value is listed as “II (II indicates solubility ≤ 1 mg/ml)”.
As for `CC[C@H](C)[C@@H](C(=O)N[C@@H](CC(C)C)C(=O)N1CCC[C@H]1C(=O)N1CCC[C@H]1C(=O)N[C@H](C(=O)N[C@@H](CC(N)=O)C(=O)N[C@H](C(=O)NCC(=O)N[C@@H](CO)C(=O)N[C@@H](CC(N)=O)C(=O)N[C@H](C(=O)N1CCC[C@H]1C(N)=O)[C@@H](C)O)C(C)C)[C@@H](C)O)N(C)C(=O)[C@@H]1CCCN1C(=O)CN(C)C(=O)[C@H](Cc1ccccc1)NC(=O)[C@H](CC(N)=O)NC(=O)[C@H](CC(N)=O)NC(=O)[C@H](CO)NC(=O)[C@H](CO)NC(=O)[C@H](Cc1c[nH]cn1)NC(=O)[C@H](Cc1c[nH]cn1)NC(=O)[C@H](CC(C)C)NC(=O)[C@H](Cc1ccccc1)NC(=O)[C@H](CCC(=O)O)NC(=O)[C@H](C)NC(=O)[C@H](CC(C)C)NC(=O)[C@H](CCCNC(=N)N)NC(=O)[C@H](CCC(N)=O)NC(=O)[C@@H](NC(=O)[C@H](C)NC(=O)[C@@H]1CSSC[C@H](NC(=O)[C@H](CCCNC(=N)N)NC(=O)CC[C@H](NC(=O)CCCCCCCCCCCCCCCCCCC(=O)O)C(=O)O)C(=O)N[C@@H](CC(N)=O)C(=O)N[C@@H]([C@@H](C)O)C(=O)N[C@@H](C)C(=O)N[C@@H]([C@@H](C)O)C(=O)N1)[C@@H](C)O` [Compound 175, [19CD]-isoGlu-RC()NTATC()ATQRLAEFLHHSSNNF-Gly(Me)-P-Ile(Me)-LPPTNVGSNTP-NH2] ({C20 diacid-γGlu}-RCNTATCATQRLAEFLHHSSNNF[Sar]P[NMeI]LPPTNVGSNTP-NH2; disulfide 2-7), the concentration for a half-maximal effect (EC50) in series [1] was determined as 0.2 nM. In series [2], the “Fibrillation lag time … (Ac)” value was “FND” and the “Fibrillation lag time … (Ph)” value is listed as “FND”. Besides, the concentration for a half-maximal effect (EC50) in series [3] amounted to 0.2 nM. For the same compound, in series [4], the “Solubility, Acetate buffer pH 4” value is listed as “SS (SS indicates solubility ≥ 1mg/ml)”; the “Solubility, Acetate buffer pH 5” value was “SS (SS indicates solubility ≥ 1mg/ml)”; the “Solubility, Histidine buffer pH 6” value is “SS (SS indicates solubility ≥ 1mg/ml)”; the “Solubility, Histidine buffer pH 7” value is “SS (SS indicates solubility ≥ 1mg/ml)”. Further, in series [4], the “Solubility, Phosphate buffer pH 6” value is given as “SS (SS indicates solubility ≥ 1mg/ml)”; the “Solubility, Phosphate buffer pH 7” value is reported as “SS (SS indicates solubility ≥ 1mg/ml)”; the “Solubility, Phosphate buffer pH 7.5” value was “II (II indicates solubility ≤ 1 mg/ml)”.
